SMILES strings stand for the structures. pIC50: −log10 of the molar value.

For the test, the target named is T1, chicken gizzard smooth muscle myosin subfragment-1 chemically crosslinked to cardiac or skeletal actin (Gallus gallus, UniProt P10587).
T1 construct: chicken gizzard smooth muscle myosin subfragment-1; from tissue; host or cells: chicken gizzard
T1 sequence (P02607 2-151): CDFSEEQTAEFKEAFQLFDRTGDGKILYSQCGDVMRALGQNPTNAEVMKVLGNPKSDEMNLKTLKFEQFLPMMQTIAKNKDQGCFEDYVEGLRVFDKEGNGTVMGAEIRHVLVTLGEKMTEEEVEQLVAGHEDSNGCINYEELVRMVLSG
T1 sequence (P10587 84-789): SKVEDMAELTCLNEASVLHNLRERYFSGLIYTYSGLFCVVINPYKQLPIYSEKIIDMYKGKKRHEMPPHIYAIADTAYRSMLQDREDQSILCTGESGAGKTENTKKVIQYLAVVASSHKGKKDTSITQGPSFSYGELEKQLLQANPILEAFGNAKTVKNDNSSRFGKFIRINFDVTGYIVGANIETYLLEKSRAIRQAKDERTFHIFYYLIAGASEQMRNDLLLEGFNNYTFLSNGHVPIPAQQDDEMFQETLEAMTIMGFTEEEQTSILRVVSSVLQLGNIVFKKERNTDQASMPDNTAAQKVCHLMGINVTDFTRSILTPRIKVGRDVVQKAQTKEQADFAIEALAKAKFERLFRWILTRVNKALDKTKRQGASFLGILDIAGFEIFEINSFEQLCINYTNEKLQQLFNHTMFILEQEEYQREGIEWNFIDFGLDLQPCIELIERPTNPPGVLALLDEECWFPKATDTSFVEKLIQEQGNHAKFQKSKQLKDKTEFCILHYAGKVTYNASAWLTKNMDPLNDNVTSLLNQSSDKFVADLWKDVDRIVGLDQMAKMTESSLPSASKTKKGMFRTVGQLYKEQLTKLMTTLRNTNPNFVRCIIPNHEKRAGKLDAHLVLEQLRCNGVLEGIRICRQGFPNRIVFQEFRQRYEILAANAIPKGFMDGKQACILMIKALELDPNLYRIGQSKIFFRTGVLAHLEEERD
Description: Smooth muscle myosin ATPase dose response assay (pyruvate kinase/horseradish peroxidase/pyruvate oxidase-coupled, amplex red fluorescence). It counts as biochemical. The note with it: read-out: IC50 Arithmetic Mean. Put shortly: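 EDC/NHS-crosslinked S1–actin, amount set per prep by rate titration. Buffer: 12 mM K-PIPES pH 7.00 (22° C), 100 mM KCl, 2 mM MgCl2, 0.15 mM ATP, 0.1 mM PEP, 2 mM KPi, 0.1 mM amplex red. Read ex 480/em 615 nm; IC50 = midpoint, 4-param Hill fit.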
What is called pIC50 is −log10 of the IC50, conventionally taken in molar units. With `N#Cc1ccccc1-c1ccc(C(=O)NCCN2C(=O)CC[C@@H]2CN)c(NCCc2cccc(F)c2)n1` [N-{2-[(5R)-5-(aminomethyl)-2-oxopyrrolidinyl]ethyl}(6-(2-cyanophenyl)-2-{[2-(3-fluorophenyl)ethyl]amino}(3-pyridyl))carboxamide], the pIC50 was 4.71.
As to `O=C(NCc1cccnc1)c1ccc(-c2ccccc2)nc1NCCc1ccccc1F` [(2-{[2-(2-fluorophenyl)ethyl]amino}-6-phenyl(3-pyridyl))-N-(3-pyridylmethyl)carboxamide], the pIC50 is 6.97.
In the case of `Cn1cc(-c2ccc(C(=O)NC[C@H]3CCC(=O)N3)c(NCCc3cccc(F)c3)n2)cn1` [N-[((2R)-5-oxopyrrolidin-2-yl)methyl](2-{[2-(3-fluorophenyl)ethyl]amino}-6-(1-methylpyrazol-4-yl)(3-pyridyl))carboxamide], the pIC50 was 6.81.
For the compound `O=C(NCc1cccnc1)c1ccc(-c2ccc(Cl)cc2)nc1NCCc1ccccn1` [{6-(4-chlorophenyl)-2-[(2-(2-pyridyl)ethyl)amino](3-pyridyl)}-N-(3-pyridylmethyl)carboxamide], the negative logarithm of the IC50 (pIC50) is 6.20.
The same measure for `Cn1cc(-c2ccc(C(=O)NCc3cccnc3)c(NCCc3ccccn3)n2)cn1` [{6-(1-methylpyrazol-4-yl)-2-[(2-(2-pyridyl)ethyl)amino](3-pyridyl)}-N-(3-pyridylmethyl)carboxamide]: 5.60; for `Cn1cc(-c2nc(NCCc3cccc(F)c3)c(C(=O)NC[C@H]3CCC(=O)N3CCCN)cc2F)cn1` [N-{[(2R)-1-(3-aminopropyl)-5-oxopyrrolidin-2-yl]methyl}(5-fluoro-2-{[2-(3-fluorophenyl)ethyl]amino}-6-(1-methylpyrazol-4-yl)(3-pyridyl))carboxamide]: 7.10; for `NCc1ncccc1CNC(=O)c1cc(F)c(-c2cc[nH]n2)nc1NCCc1cccc(F)c1` [N-{[2-(aminomethyl)(3-pyridyl)]methyl}(5-fluoro-2-{[2-(3-fluorophenyl)ethyl]amino}-6-pyrazol-3-yl(3-pyridyl))carboxamide]: 7.85.
The same measure for `C[C@@H](CNc1nc(-c2ccccc2)ccc1C(=O)NCc1cccnc1)c1ccccc1` [{2-[((2R)-2-phenylpropyl)amino]-6-phenyl(3-pyridyl)}-N-(3-pyridylmethyl)carboxamide]: 4.76.
`CC(C)(CNC(=O)c1ccc(-c2ccccc2C#N)nc1NCCc1cccc(F)c1)NC(=O)CCCNC(=O)OC(C)(C)C`: the pIC50 is 6.71.
On to `N#Cc1ccccc1-c1ccc(C(=O)NCc2ccc(Cl)nc2)c(NCCc2cccc(F)c2)n1` [N-[(6-chloro(3-pyridyl))methyl](6-(2-cyanophenyl)-2-{[2-(3-fluorophenyl)ethyl]amino}(3-pyridyl))carboxamide], for which the pIC50 is 5.75.
Regarding `CC(C)(C)OC(=O)N1CCC[C@@H]1CNC(=O)c1ccc(-c2ccccc2C#N)nc1NCCc1cccc(F)c1` [tert-butyl (2R)-2-{[(6-(2-cyanophenyl)-2-{[2-(3-fluorophenyl)ethyl]amino}(3-pyridyl))carbonylamino]methyl}pyrrolidinecarboxylate], the pIC50 is 5.71.
Under `COc1ncccc1CNC(=O)c1ccc(-c2ccccc2C#N)nc1NCCc1cccc(F)c1` [(6-(2-cyanophenyl)-2-{[2-(3-fluorophenyl)ethyl]amino}(3-pyridyl))-N-[(2-methoxy(3-pyridyl))methyl]carboxamide] stands 7.06; under `N#Cc1ccccc1-c1ccc(C(=O)NCCNCCN)c(NCCc2cccc(F)c2)n1` [N-{2-[(2-aminoethyl)amino]ethyl}(6-(2-cyanophenyl)-2-{[2-(3-fluorophenyl)ethyl]amino}(3-pyridyl))carboxamide], 6.35; under `CC(O)c1ccc(-c2ccc(C(=O)NCc3cccnc3)c(NCCc3cccc(F)c3)n2)s1` (centres unmarked) [(2-{[2-(3-fluorophenyl)ethyl]amino}-6-[5-(hydroxyethyl)(2-thienyl)](3-pyridyl))-N-(3-pyridylmethyl)carboxamide], 6.38.
The same measure for `N#Cc1ccccc1-c1ccc(C(=O)NCCCN2C(=O)CC[C@@H]2CN=[N+]=[N-])c(NCCc2cccc(F)c2)n1`: 5.25.
The same measure for `COC(=O)[C@H](N)CNC(=O)c1cc(F)c(-c2cnn(C)c2)nc1NCCc1cccc(F)c1` [methyl (2R)-2-amino-3-[(5-fluoro-2-{[2-(3-fluorophenyl)ethyl]amino}-6-(1-methylpyrazol-4-yl)(3-pyridyl))carbonylamino]propanoate]: 6.25; for `N#Cc1ccccc1-c1ccc(C(=O)NCC(=O)NCCC(=O)O)c(NCCc2cccc(F)c2)n1` [3-{2-[(6-(2-cyanophenyl)-2-{[2-(3-fluorophenyl)ethyl]amino}-3-pyridyl)carbonylamino]acetylamino}propanoic acid]: 5.01.
In the case of `NCC(=O)N1CC[C@@H]1CNC(=O)c1ccc(-c2cn[nH]c2)nc1NCCc1cccc(F)c1` [N-{[(2R)-1-(2-aminoacetyl)azetidin-2-yl]methyl}(2-{[2-(3-fluorophenyl)ethyl]amino}-6-pyrazol-4-yl(3-pyridyl))carboxamide], the pIC50 is 6.25.
The same measure for `CC(C)(C)OC(=O)N[C@@H](CO)C(=O)N1CC[C@@H]1CNC(=O)c1ccc(-c2ccccc2C#N)nc1NCCc1cccc(F)c1` [N-[2-((2R)-2-{[(6-(2-cyanophenyl)-2-{[2-(3-fluorophenyl)ethyl]amino}(3-pyridyl))carbonylamino]methyl}azetidinyl)(1S)-1-(hydroxymethyl)-2-oxoethyl](tert-butoxy)carboxamide]: 5.61; for `N#Cc1ccccc1-c1ccc(C(=O)NC[C@H](N)CO)c(NCCc2cccc(F)c2)n1` [N-((2S)-2-amino-3-hydroxypropyl)(6-(2-cyanophenyl)-2-{[2-(3-fluorophenyl)ethyl]amino}(3-pyridyl))carboxamide]: 5.80; for `Cn1cc(-c2nc(NCCc3cccc(F)c3)c(C(=O)NCC(C)(C)CO)cc2F)cn1` [(5-fluoro-2-{[2-(3-fluorophenyl)ethyl]amino}-6-(1-methylpyrazol-4-yl)(3-pyridyl))-N-(3-hydroxy-2,2-dimethylpropyl)carboxamide]: 6.65.
The same measure for `O=C(NCc1cccnc1)c1ccc(-c2cccc(F)c2)nc1NCCc1cccc(F)c1` [(6-(3-fluorophenyl)-2-{[2-(3-fluorophenyl)ethyl]amino}(3-pyridyl))-N-(3-pyridylmethyl)carboxamide]: 6.80; for `Cc1cc(C(=O)NC[C@H]2CCC(=O)N2CCCN)c(NCCc2cccc(F)c2)nc1-c1ccccc1C#N` [N-{[(2R)-1-(3-aminopropyl)-5-oxopyrrolidin-2-yl]methyl}(6-(2-cyanophenyl)-2-{[2-(3-fluorophenyl)ethyl]amino}-5-methyl(3-pyridyl))carboxamide]: 5.91.
As for `Cn1cc(-c2nc(NCCc3cccc(F)c3)c(C(=O)NC[C@H]3CCCN3C(=O)CN)cc2F)cn1` [N-{[(2R)-1-(2-aminoacetyl)pyrrolidin-2-yl]methyl}(5-fluoro-2-{[2-(3-fluorophenyl)ethyl]amino}-6-(1-methylpyrazol-4-yl)(3-pyridyl))carboxamide], the pIC50 is 7.18.
Under `O=C(NCC1CCCO1)c1ccc(-c2ccccc2)nc1NCCc1ccccn1` (centres unmarked) [N-(oxolan-2-ylmethyl){6-phenyl-2-[(2-(2-pyridyl)ethyl)amino](3-pyridyl)}carboxamide] stands 4.96; under `N#Cc1ccccc1-c1ccc(C(=O)NCCCC(N)=O)c(NCCc2cccc(F)c2)n1` [N-(3-carbamoylpropyl)(6-(2-cyanophenyl)-2-{[2-(3-fluorophenyl)ethyl]amino}(3-pyridyl))carboxamide], 6.73; under `C[C@H](N)CNC(=O)c1ccc(-c2ccccc2C#N)nc1NCCc1cccc(F)c1` [N-((2S)-2-aminopropyl)(6-(2-cyanophenyl)-2-{[2-(3-fluorophenyl)ethyl]amino}(3-pyridyl))carboxamide], 6.29.
For `CCOC(=O)CCNC(=O)c1ccc(-c2ccccc2C#N)nc1NCCc1cccc(F)c1` [ethyl 3-[(6-(2-cyanophenyl)-2-{[2-(3-fluorophenyl)ethyl]amino}-3-pyridyl)carbonylamino]propanoate], the pIC50 was 5.32.
Under `O=C(NCc1ccncc1)c1ccc(-c2ccccc2)nc1NCCc1ccccn1` [{6-phenyl-2-[(2-(2-pyridyl)ethyl)amino](3-pyridyl)}-N-(4-pyridylmethyl)carboxamide] stands 5.89; under `N#Cc1ccccc1-c1ccc(C(=O)NCc2cccnc2)c(NCCc2ccccc2O)n1` [(6-(2-cyanophenyl)-2-{[2-(2-hydroxyphenyl)ethyl]amino}(3-pyridyl))-N-(3-pyridylmethyl)carboxamide], 6.42.
Under `COC(=O)c1ccc(-c2ccc(C(=O)NCc3cccnc3)c(NCCc3ccccn3)n2)cc1` [methyl 4-{6-[(2-(2-pyridyl)ethyl)amino]-5-[N-(3-pyridylmethyl)carbamoyl]-2-pyridyl}benzoate] stands 6.00; under `NCc1cc(C(=O)NCc2cccnc2)c(NCCc2cccc(F)c2)nc1-c1ccccc1` [(5-(aminomethyl)-2-{[2-(3-fluorophenyl)ethyl]amino}-6-phenyl(3-pyridyl))-N-(3-pyridylmethyl)carboxamide], 5.05; under `N#Cc1ccccc1-c1ccc(C(=O)N[C@@H](CN)C(N)=O)c(NCCc2cccc(F)c2)n1` [N-((1S)-2-amino-1-carbamoylethyl)(6-(2-cyanophenyl)-2-{[2-(3-fluorophenyl)ethyl]amino}(3-pyridyl))carboxamide], 6.09.
Under `Cc1ncccc1CNC(=O)c1ccc(-c2ccccc2C#N)nc1NCCc1cccc(F)c1` [(6-(2-cyanophenyl)-2-{[2-(3-fluorophenyl)ethyl]amino}(3-pyridyl))-N-[(2-methyl(3-pyridyl))methyl]carboxamide] stands 7.66.
For the compound `O=Cc1sccc1-c1ccc(C(=O)NCc2cccnc2)c(NCCc2cccc(F)c2)n1` [(2-{[2-(3-fluorophenyl)ethyl]amino}-6-(2-formyl(3-thienyl))(3-pyridyl))-N-(3-pyridylmethyl)carboxamide], the pIC50 was 5.83.

These data come from patent publication US7932270B2 (Cytokinetics, Inc., priority 2006, dated 2011).
